In PubChem BioAssay AID256 (DTP/NCI, 2004):
Several values for one entry are separate records, joined by “and”; a condition that tells them apart may be missing. Equal entries are not always repeated. Toxic doses and inconclusive results are not listed. How the source made its calls: active means survival T/C of 150% or more; inactive means T/C below 125% in these data.

System: CD2F1 mice, L1210 leukemia ip, survival T/C
Assay: NCI In Vivo Anticancer Drug Screen. Data for tumor model L1210 Leukemia (intraperitoneal) in CD2F1 (CDF1) mice
Settings: higher = longer survival
Method in brief: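 Activity against a transplanted murine tumor was judged by comparing the compound group with a vehicle group. The outcome in the treated animals was divided by that in the controls.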

[1] = endpoint: mean survival time, dose: 50.0 mg/kg/injection, schedule: Q01DX009 (ip), vehicle: saline with Tween-80
[2] = endpoint: mean survival time, dose: 100.0 mg/kg/injection, schedule: Q01DX009 (ip), vehicle: saline with Tween-80
[3] = endpoint: mean survival time, dose: 200.0 mg/kg/injection, schedule: Q01DX009 (ip), vehicle: saline with Tween-80
[4] = endpoint: mean survival time, dose: 100.0 mg/kg/injection, schedule: Q04DX003 (ip), vehicle: saline with Tween-80
[5] = endpoint: mean survival time, dose: 200.0 mg/kg/injection, schedule: Q04DX003 (ip), vehicle: saline with Tween-80
[6] = endpoint: mean survival time, dose: 400.0 mg/kg/injection, schedule: Q04DX003 (ip), vehicle: saline with Tween-80
[7] = endpoint: mean survival time, dose: 100.0 mg/kg/injection, schedule: Q01DX001 (ip), vehicle: saline with Tween-80
[8] = endpoint: mean survival time, dose: 200.0 mg/kg/injection, schedule: Q01DX001 (ip), vehicle: saline with Tween-80

Measured: T/C

O=c1cc(CCl)nc2c3ncn(C4OC(CO)C(O)C4O)c3ncn12 (stereo not given)
inactive: endpoint: median survival time, dose: 12.5 mg/kg/injection, schedule: Q01DX005 (ip), vehicle: saline with Tween-80 105 % of control | endpoint: median survival time, dose: 25.0 mg/kg/injection, schedule: Q01DX005 (ip), vehicle: saline with Tween-80 102 % of control | endpoint: median survival time, dose: 50.0 mg/kg/injection, schedule: Q01DX005 (ip), vehicle: saline with Tween-80 98 % of control | endpoint: median survival time, dose: 100.0 mg/kg/injection, schedule: Q01DX005 (ip), vehicle: saline with Tween-80 95 % of control | endpoint: median survival time, dose: 200.0 mg/kg/injection, schedule: Q01DX005 (ip), vehicle: saline with Tween-80 98 % of control

O=c1ccc2c([nH]1)CCCC2
inactive: [1] 92 % of control | [2] 103 % of control | [3] 103 % of control

Cc1cc(CC(O)(C(F)(F)F)C(F)(F)F)cc(C(=O)O)n1
inactive: [4] 98 % of control | [5] 107 % of control | [6] 87 % of control

C/C=C/CNc1ccc(C)cc1
inactive: endpoint: mean survival time, dose: 66.0 mg/kg/injection, schedule: Q01DX009 (ip), vehicle: saline with Tween-80 98 % of control | [2] 100 % of control | [4] 103 % of control | endpoint: mean survival time, dose: 150.0 mg/kg/injection, schedule: Q01DX009 (ip), vehicle: saline with Tween-80 102 % of control

Cc1cc(N(CCCl)CCCl)ccc1N=Nc1ccccc1C(=O)O
inactive: endpoint: mean survival time, dose: 2.0 mg/kg/injection, schedule: Q01DX009 (ip), vehicle: saline with Tween-80 112 % of control | endpoint: mean survival time, dose: 4.0 mg/kg/injection, schedule: Q01DX009 (ip), vehicle: saline with Tween-80 120 % of control | endpoint: mean survival time, dose: 4.0 mg/kg/injection, schedule: Q04DX003 (ip), vehicle: saline with Tween-80 102 % of control | endpoint: mean survival time, dose: 5.0 mg/kg/injection, schedule: Q01DX009 (ip), vehicle: saline 114 % of control and 106 % of control | endpoint: mean survival time, dose: 8.0 mg/kg/injection, schedule: Q01DX009 (ip), vehicle: saline with Tween-80 120 % of control | endpoint: mean survival time, dose: 8.0 mg/kg/injection, schedule: Q04DX003 (ip), vehicle: saline with Tween-80 109 % of control | endpoint: mean survival time, dose: 10.0 mg/kg/injection, schedule: Q01DX001 (ip), vehicle: saline with Tween-80 106 % of control | endpoint: mean survival time, dose: 10.0 mg/kg/injection, schedule: Q01DX009 (ip), vehicle: saline with Tween-80 114 % of control | endpoint: mean survival time, dose: 10.0 mg/kg/injection, schedule: Q01DX009 (ip), vehicle: saline 115 % of control and 120 % of control | endpoint: mean survival time, dose: 10.0 mg/kg/injection, schedule: Q03DX003 (ip), vehicle: saline 113 % of control | endpoint: mean survival time, dose: 16.0 mg/kg/injection, schedule: Q04DX003 (ip), vehicle: saline with Tween-80 115 % of control | endpoint: mean survival time, dose: 20.0 mg/kg/injection, schedule: Q01DX001 (ip), vehicle: saline with Tween-80 102 % of control | endpoint: mean survival time, dose: 20.0 mg/kg/injection, schedule: Q01DX009 (ip), vehicle: saline with Tween-80 109 % of control | endpoint: mean survival time, dose: 20.0 mg/kg/injection, schedule: Q01DX009 (ip), vehicle: saline 122 % of control | endpoint: mean survival time, dose: 32.0 mg/kg/injection, schedule: Q01DX009 (ip), vehicle: saline with Tween-80 97 % of control | endpoint: mean survival time, dose: 40.0 mg/kg/injection, schedule: Q01DX001 (ip), vehicle: saline with Tween-80 115 % of control and 120 % of control | endpoint: mean survival time, dose: 40.0 mg/kg/injection, schedule: Q01DX007 (ip), vehicle: saline 100 % of control | endpoint: mean survival time, dose: 40.0 mg/kg/injection, schedule: Q01DX009 (ip), vehicle: saline 89 % of control | endpoint: mean survival time, dose: 64.0 mg/kg/injection, schedule: Q04DX003 (ip), vehicle: saline with Tween-80 103 % of control | endpoint: mean survival time, dose: 80.0 mg/kg/injection, schedule: Q01DX001 (ip), vehicle: saline with Tween-80 117 % of control and 91 % of control | endpoint: mean survival time, dose: 160.0 mg/kg/injection, schedule: Q01DX001 (ip), vehicle: saline with Tween-80 102 % of control | endpoint: median survival time, dose: 5.0 mg/kg/injection, schedule: Q01DX009 (ip), vehicle: saline 114 % of control and 105 % of control | endpoint: median survival time, dose: 10.0 mg/kg/injection, schedule: Q01DX009 (ip), vehicle: saline 117 % of control | endpoint: median survival time, dose: 20.0 mg/kg/injection, schedule: Q01DX009 (ip), vehicle: saline 117 % of control | endpoint: median survival time, dose: 40.0 mg/kg/injection, schedule: Q01DX009 (ip), vehicle: saline 114 % of control and 117 % of control

COc1cc(/C=C2\SC(=O)NC2=O)ccc1O
inactive: [2] 105 % of control

CN(C)P(=O)(OP(=O)(N(C)C)N(C)C)N(C)C
inactive: endpoint: mean survival time, dose: 2.0 mg/kg/injection, schedule: Q04DX003 (ip), vehicle: saline 102 % of control | endpoint: mean survival time, dose: 4.0 mg/kg/injection, schedule: Q04DX003 (ip), vehicle: saline 98 % of control | endpoint: mean survival time, dose: 8.0 mg/kg/injection, schedule: Q04DX003 (ip), vehicle: saline 100 % of control

O=[N+]([O-])c1ccc(C(F)(F)F)cc1
inactive: [4] 104 % of control | [5] 102 % of control

COc1cccc(/C=N/NC(=O)c2ccccc2N2CCCC2)c1O
inactive: endpoint: mean survival time, dose: 12.5 mg/kg/injection, schedule: Q01DX009 (ip), vehicle: olive oil, sesame oil, peanut oil 104 % of control | endpoint: mean survival time, dose: 25.0 mg/kg/injection, schedule: Q01DX009 (ip), vehicle: olive oil, sesame oil, peanut oil 96 % of control | endpoint: mean survival time, dose: 50.0 mg/kg/injection, schedule: Q01DX009 (ip), vehicle: olive oil, sesame oil, peanut oil 102 % of control | endpoint: mean survival time, dose: 100.0 mg/kg/injection, schedule: Q01DX009 (ip), vehicle: olive oil, sesame oil, peanut oil 94 % of control | endpoint: mean survival time, dose: 200.0 mg/kg/injection, schedule: Q01DX009 (ip), vehicle: olive oil, sesame oil, peanut oil 96 % of control

O=C(Nc1cc(C(F)(F)F)ccc1Cl)c1ccccc1Cl
inactive: [2] 104 % of control | [4] 103 % of control | [3] 94 % of control | [5] 103 % of control | endpoint: mean survival time, dose: 400.0 mg/kg/injection, schedule: Q01DX009 (ip), vehicle: saline with Tween-80 104 % of control | [6] 101 % of control

COc1ccc([N+](=O)[O-])cc1NC(=O)Nc1ccccc1C
inactive: endpoint: mean survival time, dose: 100.0 mg/kg/injection, schedule: Q04DX002 (ip), vehicle: saline with Tween-80 92 % of control | endpoint: mean survival time, dose: 200.0 mg/kg/injection, schedule: Q04DX002 (ip), vehicle: saline with Tween-80 88 % of control | endpoint: mean survival time, dose: 400.0 mg/kg/injection, schedule: Q04DX002 (ip), vehicle: saline with Tween-80 95 % of control

NCCc1nc(N)nc(N)c1-c1ccc(Cl)cc1
inactive: [7] 103 % of control | [8] 97 % of control

CCOC(=O)c1c[nH]c2cc(OC)ccc2c1=O
inactive: [4] 91 % of control | [5] 102 % of control | [6] 100 % of control

CC(=O)Nc1ccc(S(=O)(=O)/N=C2\C=CC(=O)c3ccccc32)cc1
inactive: [1] 98 % of control | [7] 104 % of control | [2] 100 % of control | [8] 111 % of control

Cc1cc(=O)ncn1C
inactive: endpoint: mean survival time, dose: 100.0 mg/kg/injection, schedule: Q04DX002 (ip), vehicle: saline 101 % of control | endpoint: mean survival time, dose: 200.0 mg/kg/injection, schedule: Q04DX002 (ip), vehicle: saline 97 % of control | endpoint: mean survival time, dose: 400.0 mg/kg/injection, schedule: Q04DX002 (ip), vehicle: saline 101 % of control

O=C1OC(=O)c2ccc([N+](=O)[O-])c3cccc1c23
inactive: endpoint: mean survival time, dose: 100.0 mg/kg/injection, schedule: Q04DX003 (ip), vehicle: Klucel (hydroxypropylcellulose) (HPC) 98 % of control | endpoint: mean survival time, dose: 200.0 mg/kg/injection, schedule: Q04DX003 (ip), vehicle: Klucel (hydroxypropylcellulose) (HPC) 106 % of control | endpoint: mean survival time, dose: 400.0 mg/kg/injection, schedule: Q04DX003 (ip), vehicle: Klucel (hydroxypropylcellulose) (HPC) 96 % of control

COC1=C(C)C(=O)c2c(c(COC(N)=O)c3n2CC2C3N2C)C1=O (stereo not given)
inactive: endpoint: mean survival time, dose: 2.25 mg/kg/injection, schedule: Q01DX001 (ip), vehicle: acetone 103 % of control | endpoint: mean survival time, dose: 2.9 mg/kg/injection, schedule: Q01DX001 (ip), vehicle: acetone 102 % of control | endpoint: mean survival time, dose: 4.5 mg/kg/injection, schedule: Q01DX001 (ip), vehicle: acetone 110 % of control | endpoint: mean survival time, dose: 6.75 mg/kg/injection, schedule: Q01DX001 (ip), vehicle: acetone 118 % of control | endpoint: mean survival time, dose: 6.75 mg/kg/injection, schedule: Q01DX001 (ip), vehicle: saline 112 % of control
